{
  "source": "patent US20250066371A1",
  "about": "“FLUOROALKOXYALKYLENE-DIHYDROIMIDAZO[5,1-D]TETRAZINONE COMPOUNDS AND RELATED COMPOUNDS AND THEIR USE IN TREATING MEDICAL CONDITIONS” (priority 2023, published 2025)",
  "test_in_all_cases": "Cell panel nuclear dye assay",
  "assay_type_in_all_cases": "cell-based",
  "key": {"[1]": {"system": "OE33", "conditions": "Homo sapiens, 120 h, Head & neck (esophageal carcinoma), 5-day incubation", "protocol": "(§1) Cells were grown in RPMI1640, 10% FBS, 2 mM L-alanyl-L-glutamine, 1 mM Na pyruvate, or a special medium. Cells were seeded into 384-well plates and incubated in a humidified atmosphere of 5% CO2 at 37° C. Compound was added the day following cell seeding. At the same time, a time zero untreated cell plate was generated. After a 5-day incubation period, cells were fixed and stained to allow fluorescence imaging of nuclei.\n(§2) Compounds were serially diluted in 2-fold steps from the highest test concentration specified, and assayed over 10 concentrations with a maximum assay concentration of 0.1% DMSO. Automated fluorescence microscopy was carried out using a Molecular Devices ImageXpress Micro XL high-content imager, and images were collected with a 4× objective. 16-bit TIFF images were acquired and analyzed with MetaXpress 5.1.0.41 software.\n(§3) Cell proliferation was measured by the fluorescence intensity of an incorporated nuclear dye. The output is referred to as the relative cell count, where the measured nuclear intensity is transformed to percent of control (POC) using the following formula: […]\n(§4) Cell count IC50 is the test compound concentration at 50% of maximal possible response. EC50 is the test compound concentration at the curve inflection point or half the effective response (parameter C of the fitted curve solution). GI50 is the concentration needed to reduce the observed growth by half (midway between the curve maximum and the time zero value). Activity area is an estimate of the integrated area above the curve. Activity area values range from 0-10, where a value of zero indicates no inhibition of proliferation at all concentrations, and a value of 10 indicates complete inhibition of proliferation at all concentrations. In rare instances, values <0 or >10 may be observed. In these instances, values <0 should be considered as equivalent to 0, whereas values >10 should be considered equivalent to 10."}, "[2]": {"system": "CRO-AP2", "conditions": "Homo sapiens, 120 h, Lymphoma, 5-day incubation", "protocol": "as §1, §2, §3, §4"}, "[3]": {"system": "WM-266-4", "conditions": "Homo sapiens, 120 h, Melanoma, 5-day incubation", "protocol": "as §1, §2, §3, §4"}, "[4]": {"system": "MT-3", "conditions": "120 h, Colon, 5-day incubation", "protocol": "as §1, §2, §3, §4"}, "[5]": {"system": "DB", "conditions": "Homo sapiens, 120 h, Lymphoma (B-cell), 5-day incubation", "protocol": "as §1, §2, §3, §4"}, "[6]": {"system": "SJRH30", "conditions": "Homo sapiens, 120 h, Sarcoma (rhabdomyosarcoma), 5-day incubation", "protocol": "as §1, §2, §3, §4"}, "[7]": {"system": "SH-4", "conditions": "Homo sapiens, 120 h, Melanoma, 5-day incubation", "protocol": "as §1, §2, §3, §4"}, "[8]": {"system": "U-87 MG", "conditions": "Homo sapiens, 120 h, Glioma (glioblastoma), 5-day incubation", "protocol": "as §1, §2, §3, §4"}, "[9]": {"system": "SU-DHL-8", "conditions": "Homo sapiens, 120 h, Lymphoma (large cell), 5-day incubation", "protocol": "as §1, §2, §3, §4"}, "[10]": {"system": "DBTRG-05MG", "conditions": "Homo sapiens, 120 h, Glioma (glioblastoma multiforme), 5-day incubation", "protocol": "as §1, §2, §3, §4"}, "[11]": {"system": "SU-DHL-10", "conditions": "Homo sapiens, SU-DHL10, 120 h, Lymphoma (large cell), 5-day incubation", "protocol": "as §1, §2, §3, §4"}, "[12]": {"system": "SNB-19", "conditions": "Homo sapiens, 120 h, Glioma (astrocytoma), 5-day incubation", "protocol": "as §1, §2, §3, §4"}, "[13]": {"system": "C32", "conditions": "Homo sapiens, 120 h, Melanoma, 5-day incubation", "protocol": "as §1, §2, §3, §4"}, "[14]": {"system": "VA-ES-BJ", "conditions": "120 h, Sarcoma (epitheloid), 5-day incubation", "protocol": "as §1, §2, §3, §4"}},
  "data": [
    {"compound": "NC(=O)c1ncn2c(=O)n(CCOC(F)(F)F)nnc12", "note": "[Compound I-1, 4-Oxo-3-(2-(trifluoromethoxy)ethyl)-3,4-dihydroimidazo[5,1-d][1,2,3,5]tetrazine-8-carboxamide]", "values": [
      {"measurement": "EC50", "setting": "[1]", "value": "30 to 70", "unit": "µM"},
      {"measurement": "IC50", "setting": "[1]", "value": "30 to 70", "unit": "µM"},
      {"measurement": "EC50", "setting": "[2]", "value": "≤ 30", "unit": "µM"},
      {"measurement": "IC50", "setting": "[2]", "value": "≤ 30", "unit": "µM"},
      {"measurement": "EC50", "setting": "[3]", "value": "30 to 70", "unit": "µM"},
      {"measurement": "IC50", "setting": "[3]", "value": "30 to 70", "unit": "µM"},
      {"measurement": "EC50", "setting": "[4]", "value": "≤ 30", "unit": "µM"},
      {"measurement": "IC50", "setting": "[4]", "value": "≤ 30", "unit": "µM"},
      {"measurement": "EC50", "setting": "[5]", "value": "≤ 30", "unit": "µM"},
      {"measurement": "IC50", "setting": "[5]", "value": "30 to 70", "unit": "µM"},
      {"measurement": "EC50", "setting": "[6]", "value": "≤ 30", "unit": "µM"},
      {"measurement": "IC50", "setting": "[6]", "value": "≤ 30", "unit": "µM"},
      {"measurement": "EC50", "setting": "[7]", "value": "30 to 70", "unit": "µM"},
      {"measurement": "IC50", "setting": "[7]", "value": "30 to 70", "unit": "µM"},
      {"measurement": "EC50", "setting": "[8]", "value": "30 to 70", "unit": "µM"},
      {"measurement": "IC50", "setting": "[8]", "value": "70 to 150", "unit": "µM"},
      {"measurement": "EC50", "setting": "[9]", "value": "≤ 30", "unit": "µM"},
      {"measurement": "IC50", "setting": "[9]", "value": "≤ 30", "unit": "µM"},
      {"measurement": "EC50", "setting": "[10]", "value": "≤ 30", "unit": "µM"},
      {"measurement": "IC50", "setting": "[10]", "value": "≤ 30", "unit": "µM"},
      {"measurement": "EC50", "setting": "[11]", "value": "≤ 30", "unit": "µM"},
      {"measurement": "IC50", "setting": "[11]", "value": "30 to 70", "unit": "µM"},
      {"measurement": "EC50", "setting": "[12]", "value": "30 to 70", "unit": "µM"},
      {"measurement": "IC50", "setting": "[12]", "value": "30 to 70", "unit": "µM"},
      {"measurement": "EC50", "setting": "[13]", "value": "30 to 70", "unit": "µM"},
      {"measurement": "IC50", "setting": "[13]", "value": "70 to 150", "unit": "µM"},
      {"measurement": "EC50", "setting": "[14]", "value": "70 to 150", "unit": "µM"},
      {"measurement": "IC50", "setting": "[14]", "value": "> 150", "unit": "µM"}
    ]}
  ]
}
